# Test results from article PMC2607018, “Iodine Atoms: A New Molecular Feature for the Design of Potent Transthyretin Fibrillogenesis Inhibitors” (PLoS ONE, 2009).
# What was measured:
# TTRY78F [1] = target: T1, TTRY78F (Homo sapiens, UniProt P02766, Y98F); parameters: method as in PMID 15080795; conditions: 1:2 proportion of TTRY78F/inhibitor; cited from earlier work
# TTRwt = TTRwt (Homo sapiens, UniProt P02766); experiment: Tetramer dissociation in 6M urea monitored by far-UV circular dichroism; assay type: biochemical; conditions: TTRwt 3.6 µM, inhibitor 7.2 µM, 25 °C
# From the text: (§1) The stabilizing effect of iodine atoms on the tetrameric form of both TTRwt and TTRY78F has been further evaluted on urea induced dissociation experiments by comparing the performance of iododiflunisal versus diflunisal. Thus, after allowing maximum stabilization of the tetrameric forms of both TTR wild type and Y78F mutant proteins by formation of TTR/inhibitor complexes of (1:2) stoichiometry, measures of circular dichroism in the far-UV of changes in the secondary structure of TTR were recorded as a function of time in 6M urea solutions. It has been assumed that the rate of tetramer dissociation is irreversibly associated to fast monomer unfolding when employing urea concentrations exceeding those that may enable monomer refolding.
# (§2) It is known that the dissociation of the tetrameric form of TTRwt takes an average of 42 h and the resulting monomers quickly unfold 500.000 times faster. Therefore the rate of dissociation can be estimated by lining it to unfolding which is irreversible in 6M urea. Thus, owing that the tetramer dissociation is the rate limiting step for fibrilogenesis and assuming the kinetic stabilizing mechanism of inhibition, good inhibitors should slow tetramer dissociation.
# (§3) Although slow tetramer dissociation is not detectable by far-UV CD spectroscopy, this technique is very much suitable at monitoring the much faster unfolding step.The CD spectra of TTR corresponds to a typical β-sheet reach protein with a Cotton effect centered at 210 nm and a shoulder at 217 nm. This band gradually looses intensity as protein denaturation advances, therefore meaningful changes in the β-sheet content of the protein are normally recorded in the region of 210–250 nm. Below this region (190–210 nm) other interesting structural changes are masked by the high concentrations of urea required for denaturation. Results are here presented in unfolded fraction units which are calculated from each spectra assuming than at time zero the elipticity recorded corresponds to the fully folded protein while at 200 h this parameter agrees with a totally unfolded state.
# (§4) Both proteins were incubated in buffered solutions of 6M urea in the presence and absence of 1:2 ratios of protein to inhibitor and far-UV CD spectra ([…]) were intermitently recorded for a period of 200 hours. […]
# (§5) Protein stock solutions of wtTTR and TTRY78F of 1 mg/ml of protein in 50 mM of sodium phosphate buffer, 1mM EDTA, pH 7.0 were also prepared from mother solutions of both proteins containing 4 mg/mL (72.7 µM) of wtTTR and 3 mg/mL (55.5 µM) of TTRY78F that were determined by spectrophotometrical methods. […] The samples were incubated over a period of 200 hours at 25 °C and far-UV CD spectra (210-250 nm) were periodically recorded in a JASCO 600 instrument. […]
# TTRY78F [2] = target: T1, TTRY78F; experiment: as above; assay type: biochemical; conditions: TTRY78F 3.6 µM, inhibitor 7.2 µM, 25 °C
# From the text: as §1, §2, §3, §4, §5
# [3] = system: natural TTR tetramers occurring in blood plasma of control and FAP patients; parameters: method as in PMID 15080795; conditions: cited from earlier work
# [4] = system: TTRV30M transgenic mice strain; experiment: Preclinical animal study, 3 months; assay type: in vivo; conditions: 2.8 mg per day during 3 months
# Protocol: (§6) To gain further insight on the therapeutic potential of these iodinated TTR fibrillogenesis inhibitors, in vitro binding tests of idodiflunisal to thyroid hormone receptors alfa and beta were carried out (data not shown). […] This has been further confirmed by preclinical animal studies using a TTRV30M transgenic mice strain receiving 2.8 mg of iododiflunisal per day during 3 months. […] However, further preclinical tests are needed to validate these compounds as potential drugs for TTR related amyloidosis.
# [5] = system: thyroid hormone receptor alfa; experiment: In vitro binding test to thyroid hormone receptors; conditions: data not shown
# Protocol: as §6
# [6] = target: T2, thyroid hormone receptor beta (Homo sapiens, UniProt P10828); experiment: In vitro binding test to thyroid hormone receptors; conditions: data not shown
# T2 sequence (P10828 1-461): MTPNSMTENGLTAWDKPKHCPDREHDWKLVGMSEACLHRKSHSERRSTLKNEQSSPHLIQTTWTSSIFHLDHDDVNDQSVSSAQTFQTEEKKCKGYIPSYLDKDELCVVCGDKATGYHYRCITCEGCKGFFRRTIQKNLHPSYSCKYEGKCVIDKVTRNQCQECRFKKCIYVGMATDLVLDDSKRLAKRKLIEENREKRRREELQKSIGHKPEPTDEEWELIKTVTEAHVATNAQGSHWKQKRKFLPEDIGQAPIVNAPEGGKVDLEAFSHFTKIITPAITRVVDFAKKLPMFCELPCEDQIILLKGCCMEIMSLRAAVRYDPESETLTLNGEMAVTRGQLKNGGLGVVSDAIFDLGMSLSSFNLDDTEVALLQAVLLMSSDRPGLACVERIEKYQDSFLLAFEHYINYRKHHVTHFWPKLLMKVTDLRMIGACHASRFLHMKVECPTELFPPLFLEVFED
# Protocol: as §6
# TTR variant Y78F = TTR variant Y78F (Homo sapiens, UniProt P02766, Y98F); experiment: Kinetic turbidity assay of acid induced fibril formation; assay type: biochemical; conditions: for IC50: inhibitor concentration at which the initial rate of fibril formation is half, Y78F TTR 0.4 mg/mL, pH 4.2, 37 °C, read-out: Kinetic turbidity assay IC50
# From the text: Two different parameters can be derived from this kinetic test. The IC50 value is the inhibitor concentration at which the initial rate of fibril formation is half than that in the absence of inhibitor. In turn, RA (%) can be defined as the percent reduction of fibril formation rate at high inhibitor concentration relative to the rate at zero concentration of tested compound.
# An in vitro turbidimetric test in a high troughput mode was used to assess the fibrillogenesis inhibition potency of the compounds of the library. The mutant protein TTRY78F was incubated with various concentrations of test compounds in 96 well microplates. After lowering the pH of the solutions to 4.2, the incubation was extended for 1.5 h while recording the absorbance at 340 nm at 1 min intervals. […] (Figure S1).
# The mutant Y78F TTR protein (0.4 mg.mL^-1) was incubated for 30 min (pH 7.6, 37 °C) with 6 concentrations of test compounds ranging from 0 to 40 µM in 96-well microplates.
# IC50% value is the inhibitor concentration at which the initial rate of fibril formation is half of that in the absence of inhibitor. RA(%) is the percentage of reduction in fibril formation rate induced by a given concentration of test compound relative to the rate of experiments at zero concentration of test compound.
# [7] = target: T3, recombinant wild type TTR (Homo sapiens, UniProt P02766); experiment: T4 competition assay (125I-T4, gel filtration); assay type: binding; conditions: for affinity for TTR relative to T4, in words: from T4 displacement
# T3 construct: made in house; host or cells: E. coli
# From the text: To evaluate the relative binding affinity of the compounds for TTR an already described procedure was followed.
compound,measurement,setting,value
"O=C(O)c1cc(-c2ccc(F)cc2F)ccc1O [1a, 2’,4’-difluoro-4-hydroxy-[1,1’]-biphenyl-3-carboxylic acid, reference compound]",aggregates seen by TEM,TTRY78F [1],still allow amyloid precipitates to occur
same,protein denaturation (unfolding) after 200 h,TTRwt,60%
same,protein denaturation (tetramer dissociation) after 200 h,TTRY78F [2],80%
"O=C(O)c1cc(-c2ccc(F)cc2F)cc(I)c1O [1b, 2’,4’-difluoro-4-hydroxy-5-iodo-[1,1’]-biphenyl-3-carboxylic acid]",stabilizing effect on TTR tetramers,[3],more potent stabilizing effect
same,metabolic disfunctions,[4],did not show significant metabolic disfunctions
same,binding constants,[5],almost negligible
same,binding constants,[6],almost negligible
same,aggregates seen by TEM,TTRY78F [1],completely prevented
same,protein denaturation (unfolding) after 200 h,TTRwt,30%
same,protein denaturation (tetramer dissociation) after 200 h,TTRY78F [2],30%
"O=C(O)CCNC(=O)c1cc(-c2ccc(F)cc2F)cc(I)c1O [22b, N-[2’-,4’-difluoro-4-hydroxy-5-iodo-[1,1’]-biphenyl-3-carbonyl]-β-alanine]","fibrillogenesis inhibitory potency, in words",TTR variant Y78F,very potent inhibitor
same,"affinity for TTR relative to T4, in words",[7],equal affinity for TTR than T4
same,T4 Displacement EC50(T4)/EC50(I),"[7]; wild type TTR 30 nM, 125I-T4, test compounds 0-10 µM, relative to cold T4",0.95
"CCOC(=O)[C@H](C)NC(=O)c1cc(-c2ccc(F)cc2F)cc(I)c1O [11b, N-[2’,4’-difluoro-4-hydroxy-5-iodo-[1,1’]-biphenyl-3-carbonyl]-L-alanine ethyl ester]",IC50,TTR variant Y78F,5.7 µM
same,"affinity for TTR relative to T4, in words",[7],higher affinity values for TTR than T4
"COC(=O)C(CC(=O)OC(C)(C)C)NC(=O)c1cc(-c2ccc(F)cc2F)cc(I)c1O [19b, N-[2’,4’-difluoro-4-hydroxy-5-iodo-[1,1’]-biphenyl-3-carbonyl]-L-aspartic α-methyl ester and β-tert-butyl ester]",IC50,TTR variant Y78F,5.8 µM
same,"affinity for TTR relative to T4, in words",[7],higher affinity values for TTR than T4
"Oc1c(I)cc(I)cc1I [TIP, triiodophenol, reference compound]",IC50,TTR variant Y78F,3.2 µM
"CC(C)(C)OC(=O)CC(NC(=O)c1cc(-c2ccc(F)cc2F)cc(I)c1O)C(=O)O [18b, N-[2’,4’-difluoro-4-hydroxy-5-iodo-[1,1’]-biphenyl-3-carbonyl]-L-aspartic β-tert-butyl ester]",IC50,TTR variant Y78F,6 µM
